Molecules are shown by their SMILES.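 1) Cells in 96-well plates. 2) Compound, 48 h, 5 concentrations. 3) Linear interpolation between surrounding doses. 4) Unreached endpoint = highest concentration. GI50 = concentration required for 50% inhibition of growth.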 Calls of active or inactive are those of the source. No stated cut-off is given here; in the data, active = GI50 up to about 1.1 µM and inactive = higher. Some results are limits rather than exact numbers.

The source of these data is ChEMBL document CHEMBL1201862, “PubChem BioAssay data set” (2004).

What all share (experiment): NCI anticancer screen, dose series, 48 h
The test system of experiment [1] is MCF7.
Experiment [2] concerns SF-295.
For experiment [3], the system named is SK-MEL-5.
Experiment [4] concerns SR.
For experiment [5], the system named is COLO 205.
For experiment [6], the system named is CCRF-CEM.
In experiment [7] the test system is RPMI-8226.
Experiment [8] deals with NCI-H226.
Experiment [9] relates to HCC 2998.
Experiment [10] relates to A549.
Experiment [11] deals with SN12C.
In experiment [12] the test system is SNB-19.
Experiment [13] concerns OVCAR-5.
The subject of experiment [14] is SNB-75.
Experiment [15] deals with PC-3.
Experiment [16] relates to ACHN.
Experiment [17] deals with HOP-92.
The test system of experiment [18] is A498.
Experiment [19] has as its system LOX IMVI.

With `COc1cc(OC)cc(C(=O)CC(=O)c2cc(OC)cc(OC)c2)c1`, the GI50 in experiment [1] is > 100 µM (inactive); in experiment [2], > 100 µM (inactive); in experiment [3], > 100 µM (inactive); in experiment [4] it was 47.8 µM (inactive); in experiment [5], > 100 µM (inactive); in experiment [6], 63.5 µM (inactive). In addition, the GI50 in experiment [7], in experiment [8], in experiment [9], in experiment [10], in experiment [11] and in experiment [12] was > 100 µM (inactive) in each case. In addition, the GI50 in experiment [13] was > 100 µM (inactive); in [14], > 100 µM (inactive); in experiment [15], 94.4 µM (inactive); in experiment [16], > 100 µM (inactive); in [17], > 100 µM (inactive); in experiment [18], > 100 µM (inactive).
For `NC(=O)c1nc[nH]c1/N=N/SCC(N)C(=O)O` (stereo unspecified), the GI50 is 97.7 µM (inactive) in [1]; 6.32 µM (inactive) in experiment [2]; 57 µM (inactive) in experiment [3]; 0.773 µM (active) in experiment [4]; 21.2 µM (inactive) in experiment [5]; 2 µM (inactive) in experiment [6]. The GI50 in experiment [7] was 6.24 µM (inactive); in [8], > 44.8 µM (inactive); in [9], 4.06 µM (inactive); in experiment [10] it was > 100 µM (inactive); in experiment [11], 6.73 µM (inactive); in experiment [12] it was > 100 µM (inactive). In addition, the GI50 is > 94 µM (inactive) in experiment [13]; 24.3 µM (inactive) in experiment [14]; 15.7 µM (inactive) in experiment [15]; 13 µM (inactive) in experiment [16]; 15.7 µM (inactive) in [17]; 2.61 µM (inactive) in experiment [19]. Also, the GI50 in [18] is > 100 µM (inactive).
In the case of `COc1ccc2c(c1OC)C(=O)N1C2=Cc2c(cc3c(c2OC)OCO3)CC1N(C)C` (stereo unspecified), the GI50 in [1] was 58.7 µM (inactive); in [2], 50.8 µM (inactive); in [3] it was 45.1 µM (inactive); in [4], 28.9 µM (inactive); in [5] it was 58.2 µM (inactive); in experiment [6] it was 27.7 µM (inactive). Also, the GI50 is 22.8 µM (inactive) in experiment [7]; 40.4 µM (inactive) in experiment [8]; > 100 µM (inactive) in experiment [9]; 47.4 µM (inactive) in [10]; 35.9 µM (inactive) in experiment [11]; > 100 µM (inactive) in [12]. In addition, the GI50 is > 100 µM (inactive) in [13]; 29.8 µM (inactive) in experiment [14]; 30.9 µM (inactive) in experiment [15]; 29.9 µM (inactive) in experiment [16]; 30.3 µM (inactive) in experiment [17]; 47.8 µM (inactive) in [18].
On to `O=[N+]([O-])c1ccc(C(=S)Nc2ccccc2)o1`, for which the GI50 is 2.05 µM (inactive) in experiment [1]; 5.56 µM (inactive) in experiment [2]; 10.9 µM (inactive) in experiment [3]; 1.79 µM (inactive) in [4]; 2.45 µM (inactive) in experiment [6]; 1.53 µM (inactive) in experiment [7]. The GI50 is 1.69 µM (inactive) in experiment [9]; 6.55 µM (inactive) in [10]; 2.42 µM (inactive) in experiment [11]; 4.62 µM (inactive) in [12]; 4.54 µM (inactive) in experiment [13]; 7.67 µM (inactive) in experiment [14]. Moreover, the GI50 in experiment [15] was 1.79 µM (inactive); in [16] it was 2.36 µM (inactive); in [17], 15.3 µM (inactive); in experiment [19], 2.29 µM (inactive); in [18], 18.1 µM (inactive).
Consider `CC1(C)OC2OC(COC(=O)C=[N+]=[N-])C3OC(C)(C)OC3C2O1` (stereo unspecified), for which the GI50 in experiment [1], in [2], in experiment [3], in [4], in [5] and in [6] was > 100 µM (inactive) in each case. The GI50 in experiment [7], in experiment [8], in experiment [9], in [11], in experiment [12] and in experiment [13] was > 100 µM (inactive) throughout. The GI50 in experiment [15], in experiment [16], in experiment [17], in experiment [19] and in [18] was > 100 µM (inactive) in each case.
As for `O=c1cnn(C/C=C/CO)c(=O)[nH]1`, the GI50 in experiment [1], in experiment [3], in experiment [4], in [5], in experiment [6] and in [7] was > 100 µM (inactive) in each case. Further, the GI50 in experiment [8], in experiment [9], in [10], in experiment [11], in experiment [12] and in experiment [13] was > 100 µM (inactive) each time. For the same compound, the GI50 in experiment [14] was > 100 µM (inactive); in experiment [15], > 100 µM (inactive); in experiment [16] it was > 100 µM (inactive); in experiment [17] it was > 100 µM (inactive); in experiment [19], 28.3 µM (inactive); in experiment [18] it was > 100 µM (inactive).
Consider `CC(NC(=O)C(NC(=O)C(NC(=O)C(F)(F)F)C(C)C)C(C)C)C(=O)Oc1c(Cl)c(Cl)c(Cl)c(Cl)c1Cl` (stereo unspecified), for which the GI50 in [1], in experiment [3], in [4], in experiment [5], in [6] and in experiment [7] was > 100 µM (inactive) throughout. Besides, the GI50 was 94.6 µM (inactive) in [8]; > 100 µM (inactive) in experiment [9]; > 100 µM (inactive) in [10]; > 100 µM (inactive) in [11]; > 100 µM (inactive) in [12]; > 100 µM (inactive) in experiment [13]. The GI50 in [14] was > 100 µM (inactive); in experiment [15], > 100 µM (inactive); in [16], > 100 µM (inactive); in experiment [17], 32.5 µM (inactive); in experiment [19] it was > 100 µM (inactive); in experiment [18] it was > 100 µM (inactive).
Consider `CC(=O)O[C@H]1CC[C@@]2(C)C(=CC[C@@H]3[C@@H]2CC[C@]2(C)Nc4c(cnn4S(C)(=O)=O)C[C@@H]32)C1`, for which the GI50 in [1] was 28.9 µM (inactive); in experiment [2], 62.2 µM (inactive); in experiment [3], 16.4 µM (inactive); in [4] it was 40.4 µM (inactive); in [5], 69 µM (inactive); in experiment [6], 37.2 µM (inactive). Besides, the GI50 in [7] is 32.3 µM (inactive); in experiment [8], 35.2 µM (inactive); in [9], > 100 µM (inactive); in experiment [11], > 100 µM (inactive); in experiment [12], > 100 µM (inactive); in [13], 38.2 µM (inactive). Moreover, the GI50 was 69.3 µM (inactive) in experiment [14], 39.1 µM (inactive) in experiment [15], 71.3 µM (inactive) in experiment [17] and > 100 µM (inactive) in experiment [18].
As for `Cn1c2c(c3ccccc31)CCN=C2C1CCCOC1=O` (stereo unspecified), the GI50 in experiment [1] is > 100 µM (inactive); in [3], > 100 µM (inactive); in [4], > 100 µM (inactive); in experiment [5] it was > 100 µM (inactive); in experiment [8], 11.7 µM (inactive); in experiment [9], > 100 µM (inactive). For the same compound, the GI50 in [10] is > 100 µM (inactive); in [11], > 100 µM (inactive); in experiment [12], > 100 µM (inactive); in [13], > 100 µM (inactive); in experiment [14], 85.9 µM (inactive); in experiment [15], > 100 µM (inactive). The GI50 was > 100 µM (inactive) in experiment [16], 45.4 µM (inactive) in experiment [17], > 100 µM (inactive) in experiment [19] and > 100 µM (inactive) in experiment [18].
On to `c1ccc(/N=C2\C(=N/c3ccccc3)N(C3CCCCC3)/C(=N\C3CCCCC3)N2c2ccccc2)cc1`, for which the GI50 in experiment [1], in experiment [3], in experiment [4], in experiment [5], in experiment [7] and in experiment [8] was > 100 µM (inactive) in each case. Besides, the GI50 in [9] was > 100 µM (inactive); in [10], > 100 µM (inactive); in experiment [11], > 10 µM (inactive); in experiment [12] it was > 100 µM (inactive); in experiment [13] it was > 100 µM (inactive); in experiment [14] it was > 100 µM (inactive). Also, the GI50 in [15], in [16], in experiment [17] and in experiment [18] was > 100 µM (inactive) throughout.
For `OC1(c2ccc(Cl)cc2)c2c(c3ccccc3c3ccccc23)C2=NCCN21` (stereo unspecified), the GI50 in experiment [1] was 14.6 µM (inactive); in [2], 11.5 µM (inactive); in experiment [3], 29 µM (inactive); in experiment [4], 4.42 µM (inactive); in experiment [5] it was 28.2 µM (inactive); in experiment [6], > 100 µM (inactive). For the same compound, the GI50 in experiment [7] is 34.4 µM (inactive); in experiment [9], 1.98 µM (inactive); in [10], 9.14 µM (inactive); in experiment [11], 16.3 µM (inactive); in [12], 13.6 µM (inactive); in experiment [13], 17 µM (inactive). In addition, the GI50 in experiment [14] is 2.91 µM (inactive); in [15], 14.6 µM (inactive); in experiment [16], 14.5 µM (inactive); in experiment [17], 16.6 µM (inactive); in experiment [19] it was 24.1 µM (inactive); in experiment [18], 19.1 µM (inactive).
